Experimental data from ChEMBL document CHEMBL4483862, “Open-source discovery of chemical leads for next-generation chemoprotective antimalarials” (2018).

Tested on: Plasmodium berghei
Assay: Luciferase/luciferin-expressing antifolate-resistant parasites were used to infect a culture of HepG2 cells that were pre-incubated with compounds. Infected hepatocytes emit light due to the luciferase reaction. Assay results are presented as the percent inhibition of light emission compared to control. […]
Type: functional
Details: sporozoite; for IC90: read-out: LUCIFERASE INFECTION ASSAY - IC90

SMILES | IC90 [µM] | further results
OC(COc1ccc2cc(Br)ccc2c1)CN1CCCC1 (stereo not given) | > 9.42 | IC50 (FFLUC_HILL_SLOPE 1.55, FFLUC_R_SQUARED 0.115, PBLUC_HILL_SLOPE 1.17, PBLUC_R_SQUARED 0.42, read-out: LUCIFERASE INFECTION ASSAY - IC50): 4.73 µM
COCCn1c(C)cc(C(=O)CSc2nnc(C)s2)c1C | > 10.1 | IC50 (FFLUC_HILL_SLOPE 1.54, FFLUC_R_SQUARED 0.663, PBLUC_HILL_SLOPE 0.577, PBLUC_R_SQUARED 0.574, read-out: LUCIFERASE INFECTION ASSAY - IC50): 0.418 µM
O=[N+]([O-])c1ccc(Sc2ccc(F)cc2)c2nonc12 | > 11.3 | IC50 (FFLUC_HILL_SLOPE 1.53, FFLUC_R_SQUARED 0.17, HEPG2TOX_HILL_SLOPE 11.1, HEPG2TOX_R_SQUARED 0.647, PBLUC_HILL_SLOPE 22.5, PBLUC_R_SQUARED 0.184, read-out: LUCIFERASE INFECTION ASSAY - IC50): 10.5 µM
O=C(/C=c1/[nH]c(=O)/c(=C/c2ccc(-c3ccccc3F)s2)s1)c1ccncc1 | > 10 | IC50 (FFLUC_HILL_SLOPE 1.61, FFLUC_R_SQUARED 0.374, read-out: LUCIFERASE INFECTION ASSAY - IC50): > 10 µM
CSc1nnc(SC2=CC(=O)CC(c3ccccc3)C2)s1 (stereo not given) | > 9.87 | IC50 (FFLUC_HILL_SLOPE 1.55, FFLUC_R_SQUARED 0.208, HEPG2TOX_HILL_SLOPE 8.38, HEPG2TOX_R_SQUARED 0.886, read-out: LUCIFERASE INFECTION ASSAY - IC50): > 9.87 µM
COC(=O)c1c(C)[nH]c(C2=NNC(=NC3CC3)SC2)c1C | 0.0583 | IC50 (FFLUC_HILL_SLOPE 1.61, FFLUC_R_SQUARED 0.895, PBLUC_HILL_SLOPE 1.62, PBLUC_R_SQUARED 0.572, read-out: LUCIFERASE INFECTION ASSAY - IC50): 0.015 µM
OC1CCC(Nc2nn3cc(-c4ccccc4)nc3s2)CC1 (stereo not given) | 0.247 | IC50 (FFLUC_HILL_SLOPE 1.59, FFLUC_R_SQUARED 0.907, PBLUC_HILL_SLOPE 0.891, PBLUC_R_SQUARED 0.938, read-out: LUCIFERASE INFECTION ASSAY - IC50): 0.0209 µM
Cc1cc(O)cc2c1C(=O)/C(=C/c1ccccc1F)O2 | 11.8 | IC50 (FFLUC_HILL_SLOPE 1.55, FFLUC_R_SQUARED 0.688, HEPG2TOX_HILL_SLOPE 12, HEPG2TOX_R_SQUARED 0.541, PBLUC_HILL_SLOPE 35.8, PBLUC_R_SQUARED 0.416, read-out: LUCIFERASE INFECTION ASSAY - IC50): 11.1 µM
COc1ccc(C(C)(C)C)cc1NC(=O)COC(=O)c1c(-c2ccccc2)csc1NC(=O)C=C(C)C | 8.12 | IC50 (FFLUC_HILL_SLOPE 1.58, FFLUC_R_SQUARED 0.454, PBLUC_HILL_SLOPE 2.65, PBLUC_R_SQUARED 0.35, read-out: LUCIFERASE INFECTION ASSAY - IC50): 3.55 µM
N#CN=c1nc(/C=C/c2ccc(Br)cc2)[nH]c(-c2ccccc2O)n1 | 5.46 | IC50 (FFLUC_HILL_SLOPE 1.52, FFLUC_R_SQUARED 0.887, PBLUC_HILL_SLOPE 1.8, PBLUC_R_SQUARED 0.711, read-out: LUCIFERASE INFECTION ASSAY - IC50): 1.61 µM
N#C/C(=N\Nc1ccc(F)cc1)S(=O)(=O)c1ccc(Cl)cc1 | 4.33 | IC50 (FFLUC_HILL_SLOPE 1.6, FFLUC_R_SQUARED 0.662, HEPG2TOX_HILL_SLOPE 1.9, HEPG2TOX_R_SQUARED 0.994, PBLUC_HILL_SLOPE 9.61, PBLUC_R_SQUARED 0.336, read-out: LUCIFERASE INFECTION ASSAY - IC50): 3.44 µM
N#CC(C#N)=NNc1ccccc1Oc1ccc(Cl)cc1Cl | > 9.96 | IC50 (FFLUC_HILL_SLOPE 1.54, FFLUC_R_SQUARED 0.588, HEPG2TOX_HILL_SLOPE 1.18, HEPG2TOX_R_SQUARED 0.604, read-out: LUCIFERASE INFECTION ASSAY - IC50): > 9.96 µM
CCn1c(SCC(=O)N2N=C(c3ccco3)CC2c2ccco2)nc2ccsc2c1=O (stereo not given) | > 10 | IC50 (FFLUC_HILL_SLOPE 1.6, FFLUC_R_SQUARED 0.281, read-out: LUCIFERASE INFECTION ASSAY - IC50): > 10 µM
Cc1ccc(-n2c(N(C)C)nc(/C=C(\C#N)C(=O)NC(C)c3ccccc3)c2Cl)cc1 (stereo not given) | > 10 | IC50 (FFLUC_HILL_SLOPE 1.62, FFLUC_R_SQUARED 0.252, read-out: LUCIFERASE INFECTION ASSAY - IC50): > 10 µM
O=C1/C(=C\c2cccnc2)SC(=S)N1Cc1ccncc1 | > 10.5 | IC50 (FFLUC_HILL_SLOPE 1.57, FFLUC_R_SQUARED 0.87, HEPG2TOX_HILL_SLOPE 6.45, HEPG2TOX_R_SQUARED 0.698, PBLUC_HILL_SLOPE 14.6, PBLUC_R_SQUARED 0.23, read-out: LUCIFERASE INFECTION ASSAY - IC50): 10.5 µM
CC1(C)CCc2cc(/C=N/C(C#N)C(=N)C#N)ccc2O1 (stereo not given) | > 11.8 | IC50 (FFLUC_HILL_SLOPE 1.61, FFLUC_R_SQUARED 0.207, read-out: LUCIFERASE INFECTION ASSAY - IC50): > 11.8 µM
COCC(C)n1c(C)cc(C(=O)CN2C(=O)c3ccccc3S2(=O)=O)c1C (stereo not given) | > 10 | IC50 (FFLUC_HILL_SLOPE 1.61, FFLUC_R_SQUARED 0.328, read-out: LUCIFERASE INFECTION ASSAY - IC50): > 10 µM
CC(OC(=O)c1c2c(nc3ccccc13)/C(=C/c1cccs1)CCC2)C(=O)Nc1ccccc1C#N (stereo not given) | 3.58 | IC50 (FFLUC_HILL_SLOPE 1.58, FFLUC_R_SQUARED 0.34, HEPG2TOX_HILL_SLOPE 8.31, HEPG2TOX_R_SQUARED 0.803, PBLUC_HILL_SLOPE 17.4, PBLUC_R_SQUARED 0.614, read-out: LUCIFERASE INFECTION ASSAY - IC50): 3.16 µM
Cc1ccc(N2C(=O)c3ccccc3C(C=NNC(=O)c3ccc(CSc4ccc(Cl)cc4)cc3)C2=O)cc1C (stereo not given) | > 10 | IC50 (FFLUC_HILL_SLOPE 1.61, FFLUC_R_SQUARED 0.665, HEPG2TOX_HILL_SLOPE 1.11, HEPG2TOX_R_SQUARED 0.878, read-out: LUCIFERASE INFECTION ASSAY - IC50): > 10 µM
FC(F)(F)c1ccc(N/N=C/c2sc(N3CCOCC3)nc2-c2ccccc2)c(Cl)c1 | > 10 | IC50 (FFLUC_HILL_SLOPE 1.6, FFLUC_R_SQUARED 0.81, read-out: LUCIFERASE INFECTION ASSAY - IC50): > 10 µM
CC(C)n1ncc2c(C(=O)Nc3sccc3C#N)cc(C3CC3)nc21 | > 10 | IC50 (FFLUC_HILL_SLOPE 1.6, FFLUC_R_SQUARED 0.58, HEPG2TOX_HILL_SLOPE 1.47, HEPG2TOX_R_SQUARED 0.871, PBLUC_HILL_SLOPE 3.01, PBLUC_R_SQUARED 0.133, read-out: LUCIFERASE INFECTION ASSAY - IC50): 5.55 µM
O=C(c1cnc2cc3c(cc2c1)OCCCO3)c1ccccc1O | 5.25 | IC50 (FFLUC_HILL_SLOPE 1.6, FFLUC_R_SQUARED 0.767, HEPG2TOX_HILL_SLOPE 8.36, HEPG2TOX_R_SQUARED 0.65, PBLUC_HILL_SLOPE 1.47, PBLUC_R_SQUARED 0.802, read-out: LUCIFERASE INFECTION ASSAY - IC50): 1.17 µM
CCN(c1ccc(-c2csc(Nc3ccc4c(c3)OCCO4)n2)cc1)S(C)(=O)=O | 5.7 | IC50 (FFLUC_HILL_SLOPE 1.56, FFLUC_R_SQUARED 0.608, HEPG2TOX_HILL_SLOPE 4.65, HEPG2TOX_R_SQUARED 0.413, PBLUC_HILL_SLOPE 3.4, PBLUC_R_SQUARED 0.614, read-out: LUCIFERASE INFECTION ASSAY - IC50): 2.99 µM
Cc1c(C)n(CCCO)c2ncn3nc(-c4ccc(F)cc4)nc3c12 | 5.99 | IC50 (FFLUC_HILL_SLOPE 1.57, FFLUC_R_SQUARED 0.582, PBLUC_HILL_SLOPE 0.753, PBLUC_R_SQUARED 0.936, read-out: LUCIFERASE INFECTION ASSAY - IC50): 0.324 µM
CC(=O)N(c1nc(/C=C2\CCOc3ccc(F)cc3C2=O)cs1)c1cccc(C)c1C | > 10 | IC50 (FFLUC_HILL_SLOPE 1.6, FFLUC_R_SQUARED 0.338, PBLUC_HILL_SLOPE 1.6, PBLUC_R_SQUARED 0.162, read-out: LUCIFERASE INFECTION ASSAY - IC50): > 10 µM
Cc1noc(C)c1COc1cccc(C(=O)Nc2cccc(S(=O)(=O)Nc3cccc(C(F)(F)F)c3)c2)c1 | > 10 | IC50 (FFLUC_HILL_SLOPE 1.54, FFLUC_R_SQUARED 0.286, HEPG2TOX_HILL_SLOPE 4.14, HEPG2TOX_R_SQUARED 0.909, PBLUC_HILL_SLOPE 1.42, PBLUC_R_SQUARED 0.59, read-out: LUCIFERASE INFECTION ASSAY - IC50): 6.04 µM
Nc1nc2c(C(=O)c3cccs3)nnn2c2ccc(Cl)cc12 | 0.489 | IC50 (FFLUC_HILL_SLOPE 1.53, FFLUC_R_SQUARED 0.767, PBLUC_HILL_SLOPE 0.914, PBLUC_R_SQUARED 0.801, read-out: LUCIFERASE INFECTION ASSAY - IC50): 0.0442 µM
COc1ccc2[nH]cc(CCNC(=O)c3ccc(-c4cccc(NC(C)=O)c4)nc3NCc3cccnc3)c2c1 | 5.13 | IC50 (FFLUC_HILL_SLOPE 1.54, FFLUC_R_SQUARED 0.292, HEPG2TOX_HILL_SLOPE 0.912, HEPG2TOX_R_SQUARED 0.95, PBLUC_HILL_SLOPE 1.88, PBLUC_R_SQUARED 0.271, read-out: LUCIFERASE INFECTION ASSAY - IC50): 1.59 µM
CCCCCC1/C(=N\O)CC(c2ccccc2)N(C)C1c1ccccc1 (stereo not given) | > 9.42 | IC50 (FFLUC_HILL_SLOPE 1.59, FFLUC_R_SQUARED 0.859, read-out: LUCIFERASE INFECTION ASSAY - IC50): > 9.42 µM
O=C(OCCSc1ccc([N+](=O)[O-])c2nonc12)c1ccc(F)cc1 | > 9.08 | IC50 (FFLUC_HILL_SLOPE 1.52, FFLUC_R_SQUARED 0.911, HEPG2TOX_HILL_SLOPE 8.69, HEPG2TOX_R_SQUARED 0.77, PBLUC_HILL_SLOPE 16.5, PBLUC_R_SQUARED 0.0304, read-out: LUCIFERASE INFECTION ASSAY - IC50): > 9.08 µM
